These results are taken from patent US12501900B2, “Heterocyclyl pyridazine as fungicidal compounds” (Bayer Aktiengesellschaft, priority 2018, dated 2025).

Data set [1] concerns Alternaria alternata. In words: Alternaria alternata in vitro cell test. Type of data set: cell-based. The settings on record: 120 h, 20 ppm of active ingredient, liquid culture, 5 days incubation, read-out: efficacy (inhibition of fungal growth). As for the experimental part: (§1) Example: Alternaria alternata In Vitro Cell Test • Solvent: DMSO • Culture medium: 14.6 g anhydrous D-glucose (VWR), 7.1 g Mycological Peptone (Oxoid), 1.4 g granulated Yeast Extract (Merck), QSP 1 liter • Inoculum: spores suspension Fungicides were solubilized in DMSO and the solution used to prepare the required range of concentrations. The final concentration of DMSO used in the assay was ≤1%. A spore suspension of A. alternata was prepared and diluted to the desired spore density. Fungicides were evaluated for their ability to inhibit spore germination and mycelium growth in liquid culture assay. The compounds were added in the desired concentration to the culture medium with spores. After 5 days incubation, fungi-toxicity of compounds was determined by spectrometric measurement of mycelium growth. Inhibition of fungal growth was determined by comparing the absorbance values in wells containing the fungicides with the absorbance in control wells without fungicides.

Data set [2] concerns Colletotrichum lindemuthianum. In words: Colletotrichum lindemuthianum in vitro cell test. Type of data set: cell-based. The following applies: 144 h, 20 ppm of active ingredient, liquid culture, 6 days incubation, read-out: efficacy (inhibition of fungal growth). The procedure:
as §1, with “Example: Colletotrichum lindemuthianum” for “Example: Alternaria alternata”, “of C. lindemuthianum” for “of A. alternata”, “inhibit spores” for “inhibit spore”, “After 6” for “After 5”

Data set [3] is described as follows: Measurement of LogP values by HPLC on reversed phase columns (EEC directive 79/831 Annex V.A8), methods [a], [b], [c]. The following applies: HPLC on reversed phase column, method [a]; read-out: Log P. Type of data set: physicochemical. The procedure: Measurement of Log P values as provided herein was performed according to EEC directive 79/831 Annex V.A8 by HPLC (High Performance Liquid Chromatography) on reversed phase columns with the following methods: • ^[a]
If more than one Log P value is available within the same method, all the values are given and separated by “+”.
Lambda-max-values were determined using UV-spectra from 200 nm to 400 nm and the peak values of the chromatographic signals

In data set [4] the test system is Botrytis cinerea. In words: In vivo preventive test on Botrytis cinerea (grey mould). The settings on record: 500 ppm of active ingredient, preventive spray on gherkin or cabbage, evaluated 4 to 5 days after inoculation, read-out: efficacy. As for the experimental part:
Example: In Vivo Preventive Test on Botrytis cinerea (Grey Mould)
(§2) • Solvent: 5% by volume of Dimethyl sulfoxide • 10% by volume of Acetone • Emulsifier: 1 μl of Tween® 80 per mg of active ingredient
(§3) The active ingredients were made soluble and homogenized in a mixture of Dimethyl sulfoxide/Acetone//Tween®80 and then diluted in water to the desired concentration.
The young plants of gherkin or cabbage were treated by spraying the active ingredient prepared as described above. Control plants were treated only with an aqueous solution of Acetone/Dimethyl sulfoxide/Tween® 80.
After 24 hours, the plants were contaminated by spraying the leaves with an aqueous suspension of Botrytis cinerea spores. The contaminated gherkin plants were incubated for 4 to 5 days at 17° C. and at 90% relative humidity. The contaminated cabbage plants were incubated for 4 to 5 days at 20° C. and at 100% relative humidity.
The test was evaluated 4 to 5 days after the inoculation. 0% means an efficacy which corresponds to that of the control plants while an efficacy of 100% means that no disease was observed.

Data set [5] relates to Septoria tritici. In words: Septoria tritici in vitro cell test. Type of data set: cell-based. The following applies: Zymoseptoria tritici, 168 h; 20 ppm of active ingredient; liquid culture, 7 days incubation; read-out: efficacy (inhibition of fungal growth). As for the experimental part:
as §1, with “Example: Septoria tritici” for “Example: Alternaria alternata”, “g Bacteriological” for “g Mycological”, “(Oxoid), •” for “(Oxoid),”, “Inoculum: spore” for “Inoculum: spores”, “of Septoria tritici” for “of A. alternata”, “After 7” for “After 5”

For data set [6], the system named is Alternaria brassicae. In words: In vivo preventive test on Alternaria brassicae (leaf spot on radish or cabbage). The settings on record: 144 h, 500 ppm of active ingredient, preventive spray on radish or cabbage, evaluated 6 days after inoculation, read-out: efficacy. As for the experimental part: Example: In Vivo Preventive Test on Alternaria brassicae (Leaf Spot on Radish or Cabbage)
as §2, §3
The young plants of radish or cabbage were treated by spraying the active ingredient prepared as described above. Control plants were treated only with an aqueous solution of Acetone/Dimethyl sulfoxide/Tween® 80.
After 24 hours, the plants were contaminated by spraying the leaves with an aqueous suspension of Alternaria brassicae spores. The contaminated radish or cabbage plants were incubated for 6 days at 20° C. and at 100% relative humidity.
The test was evaluated 6 days after the inoculation. 0% means an efficacy which corresponds to that of the control plants while an efficacy of 100% means that no disease was observed.

The test system of data set [7] is Pyrenophora teres. In words: In vivo preventive test on Pyrenophora teres (net blotch on barley). The following applies: 240 h, 500 ppm of active ingredient, preventive spray on barley, evaluated 10 days after inoculation, read-out: efficacy. The procedure:
Example: In Vivo Preventive Test on Pyrenophora teres (Net Blotch on Barley)
as §2, §3
The young plants of barley were treated by spraying the active ingredient prepared as described above. Control plants were treated only with an aqueous solution of Acetone/Dimethyl sulfoxide/Tween®80.
After 24 hours, the plants were contaminated by spraying the leaves with an aqueous suspension of Pyrenophora teres spores. The contaminated barley plants were incubated for 48 hours at 20° C. and at 100% relative humidity and then for 8 days at 20° C. and at 70-80% relative humidity.
The test was evaluated 10 days after the inoculation. 0% means an efficacy which corresponds to that of the control plants while an efficacy of 100% means that no disease was observed.

Data set [8] relates to Sphaerotheca fuliginea. In words: In vivo preventive test on Sphaerotheca fuliginea (powdery mildew on cucurbits). The settings on record: Podosphaera fuliginea, 192 h; 500 ppm of active ingredient; preventive spray on gherkin; evaluated 8 days after inoculation; read-out: efficacy. The procedure: Example: In Vivo Preventive Test on Sphaerotheca fuliginea (Powdery Mildew on Cucurbits)
as §2, §3
The young plants of gherkin were treated by spraying the active ingredient prepared as described above. Control plants were treated only with an aqueous solution of Acetone/Dimethyl sulfoxide/Tween® 80.
After 24 hours, the plants were contaminated by spraying the leaves with an aqueous suspension of Sphaerotheca fuliginea spores. The contaminated gherkin plants were incubated for 8 days at 20° C. and at 70-80% relative humidity.
The test was evaluated 8 days after the inoculation. 0% means an efficacy which corresponds to that of the control plants while an efficacy of 100% means that no disease was observed.

For data set [9], the system named is Colletotrichum lindemuthianum. In words: In vivo preventive test on Colletotrichum lindemuthianum (leaf spot on bean). The following applies: 168 h, 500 ppm of active ingredient, preventive spray on bean, evaluated 7 days after inoculation, read-out: efficacy. The procedure: Example: In Vivo Preventive Test on Colletotrichum lindemuthianum (Leaf Spot on Bean)
as §2, §3
The young plants of bean were treated by spraying the active ingredient prepared as described above. Control plants were treated only with an aqueous solution of Acetone/Dimethyl sulfoxide/Tween® 80.
After 24 hours, the plants were contaminated by spraying the leaves with an aqueous suspension of Colletotrichum lindemuthianum spores. The contaminated bean plants were incubated for 24 hours at 20° C. and at 100% relative humidity and then for 6 days at 20° C. and at 90% relative humidity.
The test was evaluated 7 days after the inoculation. 0% means an efficacy which corresponds to that of the control plants while an efficacy of 100% means that no disease was observed.

For orientation: inhibition means how much of the control response was suppressed. As to `FC(F)(F)c1cccc(Oc2nnc(Cl)cc2C2=NCC(Cc3ccc(Cl)cc3Cl)N2)c1` (racemic) [I-007, 6-chloro-4-[rac-5-[(2,4-dichlorophenyl)methyl]-4,5-dihydro-1H-imidazol-2-yl]-3-[3-(trifluoromethyl)phenoxy]pyridazine], the inhibition at 20 ppm in data set [1], in data set [2] and in data set [5] was 90 to 100% in each case. The chromatographic logP in [3] was 2.39. In addition, the pest or weed control at 500 ppm in data set [4] and in [6] was 90 to 100% in each case.
Regarding `Cc1cc(C2=NOCC(c3cn(C)c4ccccc34)N2)c(Oc2cccc(C(F)(F)F)c2)nn1` (racemic) [I-011, rac-5-(1-methylindol-3-yl)-3-[6-methyl-3-[3-(trifluoro-methyl)phenoxy]pyridazin-4-yl]-5,6-dihydro-4H-1,2,4-oxadiazine], the inhibition at 20 ppm in [1], in [2] and in data set [5] was 90 to 100% in each case. In addition, in data set [3], the chromatographic logP was determined as 3.23. For the same compound, the pest or weed control at 500 ppm lay in the range of 70 to 79% in data set [7]; 90 to 100% in data set [8]; 90 to 100% in [4]; 90 to 100% in [6]; 80 to 89% in [9].
As for `Cc1ccc(CC2CC(=O)N=C(c3cc(Cl)nnc3Oc3cccc(C4CC4)c3)N2)c(C)c1` (racemic) [I-078, rac-2-[6-chloro-3-(3-cyclopropylphenoxy)pyridazin-4-yl]-6-[(2,4-dimethylphenyl)methyl]-5,6-dihydro-1H-pyrimidin-4-one], the inhibition at 20 ppm in data set [1] and in [2] was 90 to 100% in each case. In addition, the chromatographic logP in [3] was 4.31. For the same compound, the pest or weed control at 500 ppm lay in the range of 80 to 89% in [7]; 80 to 89% in [8]; 90 to 100% in data set [4]; 90 to 100% in [6]; 90 to 100% in data set [9].
Take `COc1ccc(C2NC(c3cc(C)nnc3Oc3cccc(C(F)(F)F)c3)=NOC2(F)F)cc1` (racemic) [I-154, rac-6,6-difluoro-5-(4-methoxyphenyl)-3-[6-methyl-3-[3-(trifluoromethyl)phenoxy]pyridazin-4-yl]-4,5-dihydro-1,2,4-oxadiazine]: the inhibition at 20 ppm in [1] and in [2] was 90 to 100% throughout. The chromatographic logP in data set [3] is 3.6. The pest or weed control at 500 ppm in [7], in data set [8], in data set [4], in [6] and in data set [9] was 90 to 100% in each case.
For the compound `Cc1ccc(CC2CNN=C(c3cc(Cl)nnc3Oc3cccc(C(F)(F)F)c3)N2)c(C)c1` (racemic) [I-173, rac-3-[6-chloro-3-[3-(trifluoromethyl)phenoxy]pyridazin-4-yl]-5-[(2,4-dimethylphenyl)methyl]-1,4,5,6-tetrahydro-1,2,4-triazine], the inhibition at 20 ppm in [1] and in data set [2] was 90 to 100% in each case. In data set [3], the chromatographic logP is 3.31. Moreover, the pest or weed control at 500 ppm in data set [7], in [8], in data set [4], in [6] and in data set [9] was 90 to 100% in each case.
With `FC(F)(F)c1cccc(Oc2nnc(Cl)cc2C2=NOC[C@H](Cc3ccccc3)N2)c1` (single isomer, unassigned) [I-070], the inhibition at 20 ppm lay in the range of 90 to 100% in [1], 90 to 100% in [2] and 80 to 89% in data set [5]. In addition, the chromatographic logP in data set [3] was determined as 3.81. For the same compound, the pest or weed control at 500 ppm in data set [7], in data set [8], in data set [4], in data set [6] and in [9] was 90 to 100% in each case.
